Experiments:
THP-1 cells [1] = assay: TNFα generation assay; format: cell-based, human; details: Table 22, read-out: IC50 in TNFα generation assay
Summary of the method: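 Secreted TNFα in supernatant quantified by ELISA or AlphaLISA after 7 h culture on human IgG-coated wells (10 μg/ml coating). Cells were IFN-γ-differentiated THP-1 (10 ng/ml, 2 days), exposed to compound for 30 min at room temperature before plating.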

[2] = target: T1, glutathione S-transferase (GST)-fused full-length human Syk protein (Homo sapiens, UniProt P43405); assay: Syk enzyme assay; format: biochemical; details: Syk enzyme assay, Test Example 1; read-out: IC50 of Syk-inhibitory activity
T1 construct: (GST)-fused full-length human Syk protein; GST (glutathione S-transferase); purchased Carna Biosciences
Summary of the method: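 IC50 values come from a time-resolved FRET readout (615 and 665 nm) of substrate phosphorylation, measured after an EDTA stop and 1 h antibody binding. The kinase reaction ran 40 min at room temperature with 27 μM ATP and 0.4 μM biotin-peptide, following a 15 min compound preincubation with baculovirus-made GST-full-length human Syk.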

THP-1 cells [3] = assay: Antibody-dependent phagocytosis assay; format: cell-based; details: Homo sapiens; THP-1 cells induced to differentiate with IFNγ; opsonized Escherichia coli; Table 23; read-out: IC50 upon phagocytosis inhibition
Description: THP-1 cells (2×10^5 cells/ml) which are human monocyte-like cell line were cultured in the presence of 10 ng/ml IFNγ for 2 days, so that the cells were induced to differentiate into macrophage-like cells. THP-1 cells that had been induced to differentiate were collected. The cells (5×10^4 cells/well) were reacted with test compounds having given concentrations at room temperature for 30 minutes. Thereafter, Escherichia coli (Life Technologies) labeled with a pH-sensitive dye (pHrodo) was subjected to opsonization using an anti-Escherichia coli antibody (Molecular Probes). Then, the resultant was added to THP-1 cells mixed with test compounds that had been induced to differentiate, followed by incubation at 37° C. for 3 hours. At the time of addition of opsonized Escherichia coli, cell-permeable fluorescent dye (Calcein AM) were simultaneously added thereto, and phagocytosis of opsonized Escherichia coli in viable cells was quantitatively determined using an IN Cell Analyzer.
In addition, the following are used in Table 23 to denote standards for evaluating IC50 upon phagocytosis inhibition. • A: Up to 1 μM • B: 1 to 3 μM • C: 3 to 6 μM

[4] = Homo sapiens, THP-1, THP-1 cells

IC50 (THP-1 cells [1]; [4]) | IC50 [2] | IC50 (THP-1 cells [3]) | IC50 (THP-1 cells [1]; THP-1 cells) | Compound
< 65 nM | < 10 nM | 1000 to 3000 nM |  | NC(=O)c1cc(F)c(N[C@@H]2CCCC[C@@H]2N)nc1Nc1ccnc2[nH]ccc12 (relative stereo) [Example 004-060]
< 65 nM | < 10 nM | 1000 to 3000 nM |  | NC(=O)c1cc(F)c(N[C@@H]2CCCC[C@@H]2N)nc1Nc1cc(F)c2[nH]ccc2c1 (relative stereo) [Example 004-079, 6-(cis-2-aminocyclohexylamino)-5-fluoro-2-((7-fluoro-1H-indol-5-yl)amino)nicotinamide]
 | < 10 nM | < 1000 nM |  | COc1cccc2cc(Nc3nc(N[C@@H]4CCCC[C@@H]4N)c(F)cc3C(N)=O)cnc12 (relative stereo) [Example 004-120, 6-(cis-2-aminocyclohexylamino)-5-fluoro-2-((8-methoxyquinolin-3-yl)amino)nicotinamide]
65 to 130 nM | 10 to 50 nM | 1000 to 3000 nM |  | N#Cc1cc(Nc2nc(N[C@@H]3CCCC[C@@H]3N)c(F)cc2C(N)=O)cnc1N1CCOCC1 (relative stereo) [Example 004-228, 6-((cis-2-aminocyclohexyl)amino)-2-((5-cyano-6-morpholinopyridin-3-yl)amino)-5-fluoronicotinamide]
< 65 nM | < 10 nM | 1000 to 3000 nM |  | NC(=O)c1cc(F)c(NC2CCCCC2N)nc1Nc1cncc(-c2ccccc2)c1 (stereo not drawn) [Example 002-001]
65 to 130 nM | < 10 nM | 1000 to 3000 nM |  | Cc1ncc(Nc2nc(NC3CCCCC3N)c(F)cc2C(N)=O)cc1-n1nccn1 (stereo not drawn) [Example 002-134]
< 65 nM | < 10 nM | < 1000 nM |  | CC(=O)Nc1cccc2cc(Nc3nc(N[C@@H]4CCCC[C@@H]4N)c(F)cc3C(N)=O)cnc12 [Example 004-008]
< 65 nM | < 10 nM | 1000 to 3000 nM |  | Cn1ccc2c(Nc3nc(N[C@@H]4CCCC[C@@H]4N)c(F)cc3C(N)=O)ccnc21 [Example 004-013]
 | 10 to 50 nM | 3000 to 6000 nM | 65 to 130 nM | Cc1ccc(Nc2nc(N[C@@H]3CCCC[C@@H]3N)c(F)cc2C(N)=O)cn1 [Example 004-017]
130 to 200 nM | < 10 nM | 1000 to 3000 nM |  | COc1cncc(Nc2nc(N[C@@H]3CCCC[C@@H]3N)c(F)cc2C(N)=O)c1 [Example 004-031]
65 to 130 nM | < 10 nM | 1000 to 3000 nM |  | NC(=O)c1cc(F)c(N[C@@H]2CCCC[C@@H]2N)nc1Nc1cncc(-n2nccn2)c1 [Example 004-042]
< 65 nM | < 10 nM | < 1000 nM |  | COc1cc(Nc2nc(NC[C@H](C)N)c(F)cc2C(N)=O)cc(OC)n1 [Example 006-098, (S)-6-((2-aminopropyl)amino)-2-((2,6-dimethoxypyridin-4-yl)amino)-5-fluoronicotinamide]
65 to 130 nM | < 10 nM | < 1000 nM |  | COCCOc1cc(Nc2nc(N[C@@H](CN)CC(C)C)c(F)cc2C(N)=O)ccn1 [Example 006-157, (R)-6-((1-amino-4-methylpentan-2-yl)amino)-5-fluoro-2-((2-(2-methoxyethoxy)pyridin-4-yl)amino)nicotinamide]
65 to 130 nM | 10 to 50 nM | 1000 to 3000 nM |  | NC(=O)c1cc(F)c(N[C@@H]2CCCC[C@@H]2N)nc1Nc1ccc(N2CCOCC2)nc1 [Example 006-165, 6-(((1R,2S)-2-aminocyclohexyl)amino)-5-fluoro-2-((6-morpholinopyridin-3-yl)amino)nicotinamide]
 | < 10 nM | 1000 to 3000 nM | 65 to 130 nM | COCCOc1ccc2cc(Nc3nc(N[C@@H]4CCCC[C@@H]4N)c(F)cc3C(N)=O)cnc2c1 [Example 006-173, 6-(((1R,2S)-2-aminocyclohexyl)amino)-5-fluoro-2-((7-(2-methoxyethoxy)quinolin-3-yl)amino)nicotinamide]
130 to 200 nM | < 10 nM | 1000 to 3000 nM |  | Cc1cc(Nc2nc(N[C@@H](CN)CC(C)C)c(F)cc2C(N)=O)cnc1C [Example 006-177, (R)-6-((1-amino-4-methylpentan-2-yl)amino)-2-((5,6-dimethylpyridin-3-yl)amino)-5-fluoronicotinamide]

IC50 (THP-1 cells [1]; [4]) | IC50 [2] | IC50 (THP-1 cells [3]) | IC50 (THP-1 cells [1]; THP-1 cells) | Compound
< 65 nM | < 10 nM | 1000 to 3000 nM |  | CC[C@@H](Nc1nc(Nc2ccc3c(cnn3CC)c2)c(C(N)=O)cc1F)[C@H](C)N [Example 006-211, 6-(((2S,3R)-2-aminopentan-3-yl)amino)-2-((1-ethyl-1H-indazol-5-yl)amino)-5-fluoronicotinamide]
65 to 130 nM | < 10 nM | 1000 to 3000 nM |  | CCC[C@@H](Nc1nc(Nc2cncc(-n3cccn3)c2)c(C(N)=O)cc1F)[C@H](C)N [Example 006-219, 2-((5-(1H-pyrazol-1-yl)pyridin-3-yl)amino)-6-(((2S,3R)-2-aminohexan-3-yl)amino)-5-fluoronicotinamide]
< 65 nM | < 10 nM | 1000 to 3000 nM |  | CCC[C@@H](Nc1nc(Nc2ccnc(OC)c2)c(C(N)=O)cc1F)[C@H](C)N [Example 006-249, 6-(((2S,3R)-2-aminohexan-3-yl)amino)-5-fluoro-2-((2-methoxypyridin-4-yl)amino)nicotinamide]
< 65 nM | < 10 nM | 1000 to 3000 nM |  | CC[C@@H](Nc1nc(Nc2cncc(-c3ccccc3F)c2)c(C(N)=O)cc1F)[C@H](C)N [Example 006-257, 6-(((2S,3R)-2-aminopentan-3-yl)amino)-5-fluoro-2-((5-(2-fluorophenyl)pyridin-3-yl)amino)nicotinamide]
< 65 nM | < 10 nM | 1000 to 3000 nM |  | CC[C@@H](Nc1nc(Nc2ccc3c(OC)nccc3c2)c(C(N)=O)cc1F)[C@H](C)N [Example 006-263, 6-(((2S,3R)-2-aminopentan-3-yl)amino)-5-fluoro-2-((1-methoxyisoquinolin-6-yl)amino)nicotinamide]
< 65 nM | < 10 nM | 1000 to 3000 nM |  | CC[C@@H](Nc1nc(Nc2cncc(-c3ccccc3)c2)c(C(N)=O)cc1F)[C@H](C)N [Example 006-270, 6-(((2S,3R)-2-aminopentan-3-yl)amino)-5-fluoro-2-((5-phenylpyridin-3-yl)amino)nicotinamide]
 | < 10 nM | 3000 to 6000 nM |  | NC(=O)c1cc(F)c(NC2CCCCC2N)nc1Nc1cccc(C(F)(F)F)c1 (stereo not drawn) [Example 008-007]
 |  | 3000 to 6000 nM |  | NC(=O)c1cc(Nc2nc(NC3CCCC[C@@H]3N)c(F)cc2C(N)=O)ccn1 (stereo partly drawn) [Example 029-012]
< 65 nM | < 10 nM |  |  | NC(=O)c1cc(F)c(N[C@@H]2CCCC[C@@H]2N)nc1Nc1ccc2ncccc2c1 [Example 37-3, 6-((1R,2S)-2-aminocyclohexylamino)-5-fluoro-2-((quinolin-6-yl)amino)nicotinamide]
< 65 nM | < 10 nM |  |  | NC(=O)c1cc(F)c(N[C@@H]2CCCC[C@@H]2N)nc1Nc1cnc2ccccc2c1 [Example 37-4, 6-((1R,2S)-2-aminocyclohexylamino)-5-fluoro-2-((quinolin-3-yl)amino)nicotinamide]
65 to 130 nM | < 10 nM |  |  | Cn1ncc2cc(Nc3nc(N[C@@H]4CCCC[C@@H]4N)c(F)cc3C(N)=O)ccc21 [Example 37-5, 6-((1R,2S)-2-aminocyclohexylamino)-5-fluoro-2-((1-methyl-1H-indazol-5-yl)amino)-nicotinamide]
< 65 nM | < 10 nM |  |  | CC[C@H](CN)Nc1nc(Nc2ccc3ncccc3c2)c(C(N)=O)cc1F [Example 39-2, (R)-6-((1-aminobutan-2-yl)amino)-5-fluoro-2-((quinolin-6-yl)amino)nicotinamide]
< 65 nM | < 10 nM |  |  | C[C@H](CN)Nc1nc(Nc2ccc3ncccc3c2)c(C(N)=O)cc1F [Example 39-3, (R)-6-((1-aminopropan-2-yl)amino)-5-fluoro-2-((quinolin-6-yl)amino)nicotinamide]
65 to 130 nM | < 10 nM |  |  | NC[C@H](Nc1nc(Nc2ccc3ncccc3c2)c(C(N)=O)cc1F)c1ccccc1 [Example 39-4, (R)-6-((2-amino-1-phenylethyl)amino)-5-fluoro-2-((quinolin-6-yl)amino)nicotinamide]
 | < 10 nM |  | 65 to 130 nM | NC(=O)c1cc(F)c(N[C@@H]2CCCC[C@@H]2N)nc1Nc1cncc(-c2cccc(N)c2)c1 [Example 043-000]
65 to 130 nM | 10 to 50 nM |  |  | Cc1cc(Nc2nc(N[C@H](CCCO)[C@H](C)N)c(F)cc2C(N)=O)cnc1C [Example 044-000]
